Test results: US20250250239A1, “SOLID STATE FORMS OF MAVACAMTEN AND PROCESS FOR PREPARATION THEREOF” (Assia Chemical Industries Ltd., priority 2022, published 2025)
“Also recorded” adds a separate entry of the source.

Assays:
Format in all cases: physicochemical
[1] = Storage stability at different relative humidities (XRPD analysis); conditions: high and low relative humidity, ambient temperature
Experimental: (§1) Sample, after being powdered in a mortar and pestle, is applied directly on a silicon plate holder. The X-ray powder diffraction pattern was measured with Philips X'Pert PRO X-ray powder diffractometer, equipped with Cu irradiation source=1.54184 Å (Ångstrom), X'Celerator (2.022° 2θ) detector. Scanning parameters: angle range: 3-40 deg., step size 0.0167, time per step 37 s, continuous scan. The described peak positions were determined using silicon powder as an internal standard.
(§2) Samples of Mavacamten Form 7 were subjected to conditions of different relative humidities at ambient temperature; TGA weight loss analysis was performed on the samples after 7 days, XRPD analysis was performed after 30 days.

[2] = TGA weight loss after storage at different relative humidities (hygroscopicity); conditions: for TGA weight loss after 7 days (up to 190° C.): ambient temperature
Experimental: as §2

[3] = Stability experiments, all tested stress conditions (summary); conditions: strong grinding, pressure of 1 ton, high humidity (up to 100% RH for 30 days), high temperature (up to 100° C.)
Description: Example 2: Stability Experiments

[4] = Stability to compression (pressure of 1 ton, XRPD); conditions: Pressure (1 tons), XRPD after 2 minutes
Experimental: as §1
A sample of Mavacamten Form 7 was subjected to a pressure of 1 ton (Atlas® Autopress hydraulic press, set to 1 ton). XRPD analysis was performed on the sample after 2 minutes.

[5] = Grinding experiments (strong grinding and solvent drop grinding, XRPD); conditions: for XRPD analysis results: 2 minutes
Experimental: as §1
Samples of Mavacamten Form 7 were subjected to strong grinding, and to solvent drop grinding in isopropanol, ethanol, ethyl acetate, acetone and water. Grinding was carried out on the samples alone, or in the presence of a solvent. In these experiments, about 20 mg of the sample is placed in a mortar and ground with a pestle for 2 minutes. The solvent, when used, as added to the crystalline material before grinding, in a volume of 10 microliters.

[6] = Thermal stability (heating, XRPD); conditions: Heating 100° C., 30 minutes
Experimental: as §1
A sample of Mavacamten Form 7 was subjected to heating up to 100° C. for 30 minutes.

[7] = Sauna experiments (exposure to solvent vapors, XRPD)
Experimental: as §1
Samples of Mavacamten Form 7 (about 20-30 mg) were exposed for 7 days to vapors of different solvents in a sealed chamber.

- Hygroscopicity ([2]; as confirmed by TGA, different relative humidities): non-hygroscopic
- TGA weight loss after 7 days (up to 190° C.) ([2]; relative humidity 20%): 0.7%
- TGA weight loss after 7 days (up to 190° C.) ([2]; relative humidity 40%): 0.6%
- TGA weight loss after 7 days (up to 190° C.) ([2]; relative humidity 60%): 0.8%
- TGA weight loss after 7 days (up to 190° C.) ([2]; relative humidity 80%): 0.5%
- TGA weight loss after 7 days (up to 190° C.) ([2]; relative humidity 100%): 1%
- XRPD analysis results [4]: No polymorphic conversion
- XRPD analysis results ([5]; Solvent-drop grinding (acetone)): No polymorphic conversion
- XRPD analysis results ([5]; Solvent-drop grinding (ethanol)): No polymorphic conversion
- XRPD analysis results ([5]; Solvent-drop grinding (ethyl-acetate)): No polymorphic conversion
- XRPD analysis results ([5]; Solvent-drop grinding (isopropanol)): No polymorphic conversion
- XRPD analysis results ([5]; Solvent-drop grinding (water)): No polymorphic conversion
- XRPD analysis results ([5]; Strong grinding): No polymorphic conversion
- XRPD analysis after the grinding experiment ([5]; strong grinding and solvent drop grinding in isopropanol, ethanol, ethyl acetate, acetone and water): no change in the starting material
- XRPD analysis results ([7]; Sauna (RT/7 days) (ethanol)): No polymorphic conversion
- XRPD analysis results ([7]; Sauna (RT/7 days) (ethyl acetate)): No polymorphic conversion
- XRPD analysis results ([7]; Sauna (RT/7 days) (isopropanol)): No polymorphic conversion
- XRPD analysis results ([7]; Sauna (RT/7 days) (water)): No polymorphic conversion
SMILES: CC(C)n1c(=O)cc(N[C@@H](C)c2ccccc2)[nH]c1=O [Mavacamten Form 7, 6-{[(1S)-1-phenylethyl]amino}-3-(propan-2-yl)-1,2,3,4-tetrahydropyrimidine-2,4-dion]
- Stability at relative humidity conditions [1]: stable at high and low relative humidity conditions
- Stability under tested stress conditions [3]: stable under all tested stress conditions
- Result (XRPD analysis) [6]: no change in the starting material; also recorded: No polymorphic conversion
